Patent US10294229B2, “Heteroaryl substituted aminopyridine compounds” (BRISTOL-MYERS SQUIBB COMPANY, priority 2015, dated 2019)
pEC50, pIC50: −log10 of the molar value.

Experiments:
[1] = tested on: Human whole blood stimulated with a TLR2 agonist (lipoteichoic acid), IL-6 levels; assay: IRAK4 Whole Blood Assay; format: cell-based; conditions: lipoteichoic acid 10 μg/mL
Experimental: Human whole blood containing the anti-coagulant ACD-A was plated in 384-well plate (25 μL/well) and incubated with compounds for 60 minutes at 37° C. in a 5% CO2 incubator. The blood was stimulated with a TLR2 agonist, 10 μg/mL final concentration of lipoteichoic acid (Invivogen, San Diego, Calif.) in 25 μL RPMI (Gibco) for 5 hours in a 5% CO2 incubator. At the end of the incubation, plates were centrifuged at 2300 rpm for 5 minutes. Supernatants were harvested and analyzed for IL-6 levels by Flow Cytometry beads assay (BD Biosciences, San Jose, Calif.).

IRAK4 = IRAK4 (Homo sapiens (Human), UniProt Q9NWZ3); assay: IRAK4 Inhibition Assay; format: biochemical; conditions: ATP 500 μM; IRAK4 0.6 nM
How it was run: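 Readout: electrophoretic (LabChip) separation of fluorescent peptide substrate from phosphorylated product after EDTA quench. Reactions ran 60 min at room temperature with 0.6 nM IRAK4, 1.5 μM peptide and 500 μM ATP; inhibition referenced to no-enzyme (100%) and vehicle (0%) controls.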

Chain of IRAK4 (Q9NWZ3 whole entry, species assumed): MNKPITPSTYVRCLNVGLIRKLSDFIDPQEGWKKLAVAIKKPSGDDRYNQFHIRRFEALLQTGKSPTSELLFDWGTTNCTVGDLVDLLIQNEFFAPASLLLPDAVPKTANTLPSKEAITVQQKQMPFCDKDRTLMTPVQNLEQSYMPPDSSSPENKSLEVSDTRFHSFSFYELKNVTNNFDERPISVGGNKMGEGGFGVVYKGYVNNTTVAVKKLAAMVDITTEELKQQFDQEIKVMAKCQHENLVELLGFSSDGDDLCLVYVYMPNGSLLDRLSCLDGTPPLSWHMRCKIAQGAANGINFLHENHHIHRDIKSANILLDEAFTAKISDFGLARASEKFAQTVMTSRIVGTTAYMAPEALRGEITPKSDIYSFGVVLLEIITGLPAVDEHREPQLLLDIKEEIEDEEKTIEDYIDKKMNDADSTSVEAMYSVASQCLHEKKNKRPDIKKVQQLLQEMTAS

pEC50 ([1]; Homo sapiens)	pIC50 (IRAK4)	pEC50 [1]	SMILES
5.75	8.52	–	CC(C)Nc1cc(-n2ncc3cc(C#N)cnc32)ncc1-c1cn(CCCCCO)nn1 [Example 125, 1-(5-(1-(5-hydroxypentyl)-1H-1,2,3-triazol-4-yl)-4-(isopropylamino)pyridin-2-yl)-1H-pyrazolo[3,4-b]pyridine-5-carbonitrile]
6.41	8.40	–	CC(C)Nc1cc(-n2ncc3cc(C#N)cnc32)ncc1-c1cn(CCN(C)C)nn1 [Example 126, 1-(5-(1-(2-(dimethylamino)ethyl)-1H-1,2,3-triazol-4-yl)-4-(isopropylamino)pyridin-2-yl)-1H-pyrazolo[3,4-b]pyridine-5-carbonitrile]
5.53	8.00	–	CC(C)Nc1cc(-n2ncc3cc(C#N)cnc32)ncc1-c1cn(CCCN2CCCC2)nn1 [Example 127, 1-(4-(isopropylamino)-5-(1-(3-(pyrrolidin-1-yl)propyl)-1H-1,2,3-triazol-4-yl)pyridin-2-yl)-1H-pyrazolo[3,4-b]pyridine-5-carbonitrile]
6.08	8.15	–	CC(C)Nc1cc(-n2ncc3cc(C#N)cnc32)ncc1-c1cn(CC(O)C(F)(F)F)nn1 (stereo not shown) [Example 129, 1-(4-(isopropylamino)-5-(1-(3,3,3-trifluoro-2-hydroxypropyl)-1H-1,2,3-triazol-4-yl)pyridin-2-yl)-1H-pyrazolo[3,4-b]pyridine-5-carbonitrile]
4.97	8.30	–	CC(C)Nc1cc(-n2ncc3cc(C#N)cnc32)ncc1-c1cn(CCCc2ccccc2)nn1 [Example 130, 1-(4-(isopropylamino)-5-(1-(3-phenylpropyl)-1H-1,2,3-triazol-4-yl)pyridin-2-yl)-1H-pyrazolo[3,4-b]pyridine-5-carbonitrile]
5.97	7.92	–	CC(C)Nc1cc(-n2ncc3cc(C#N)cnc32)ncc1-c1cn(CC(O)CO)nn1 (stereo not shown) [Example 131, 1-(5-(1-(2,3-dihydroxypropyl)-1H-1,2,3-triazol-4-yl)-4-(isopropylamino)pyridin-2-yl)-1H-pyrazolo[3,4-b]pyridine-5-carbonitrile]
6.01	8.00	–	COCC(O)Cn1cc(-c2cnc(-n3ncc4cc(C#N)cnc43)cc2NC(C)C)nn1 (stereo not shown) [Example 133, 1-(5-(1-(2-hydroxy-3-methoxypropyl)-1H-1,2,3-triazol-4-yl)-4-(isopropylamino)pyridin-2-yl)-1H-pyrazolo[3,4-b]pyridine-5-carbonitrile]
6.26	8.22	–	CC[C@H](O)Cn1cc(-c2cnc(-n3ncc4cc(C#N)cnc43)cc2NC(C)C)nn1 [Example 134, (S)-1-(5-(1-(2-hydroxybutyl)-1H-1,2,3-triazol-4-yl)-4-(isopropylamino)pyridin-2-yl)-1H-pyrazolo[3,4-b]pyridine-5-carbonitrile]
5.92	8.40	–	CC(C)Nc1cc(-n2ncc3cc(C#N)cnc32)ncc1-c1cn(CC(O)C(C)C)nn1 (stereo not shown) [Example 135, 1-(5-(1-(2-hydroxy-3-methylbutyl)-1H-1,2,3-triazol-4-yl)-4-(isopropylamino)pyridin-2-yl)-1H-pyrazolo[3,4-b]pyridine-5-carbonitrile]
5.77	8.10	–	CCOCC(O)Cn1cc(-c2cnc(-n3ncc4cc(C#N)cnc43)cc2NC(C)C)nn1 (stereo not shown) [Example 137, 1-(5-(1-(3-ethoxy-2-hydroxypropyl)-1H-1,2,3-triazol-4-yl)-4-(isopropylamino)pyridin-2-yl)-1H-pyrazolo[3,4-b]pyridine-5-carbonitrile]
5.96	8.40	–	CC(C)Nc1cc(-n2ncc3cc(C#N)cnc32)ncc1-c1cn(C2CN(C(=O)CC3CC3)C2)nn1 [Example 139, 1-(5-(1-(1-(2-cyclopropylacetyl)azetidin-3-yl)-1H-1,2,3-triazol-4-yl)-4-(isopropylamino)pyridin-2-yl)-1H-pyrazolo[3,4-b]pyridine-5-carbonitrile]
6.02	8.10	–	CC(C)Nc1cc(-n2ncc3cc(C#N)cnc32)ncc1-c1cn(C2CN(C#N)C2)nn1 [Example 141, 1-(5-(1-(1-cyanoazetidin-3-yl)-1H-1,2,3-triazol-4-yl)-4-(isopropylamino)pyridin-2-yl)-1H-pyrazolo[3,4-b]pyridine-5-carbonitrile]
6.25	8.30	–	COC(=O)N1CC(n2cc(-c3cnc(-n4ncc5cc(C#N)cnc54)cc3NC(C)C)nn2)C1 [Example 142, methyl 3-(4-(6-(5-cyano-1H-pyrazolo[3,4-b]pyridin-1-yl)-4-(isopropylamino)pyridin-3-yl)-1H-1,2,3-triazol-1-yl)azetidine-1-carboxylate]
6.01	8.10	–	CC(C)Nc1cc(-n2ncc3cc(C#N)cnc32)ncc1-c1cn(C2CN(C(=O)c3ccccc3)C2)nn1 [Example 143, 1-(5-(1-(1-benzoylazetidin-3-yl)-1H-1,2,3-triazol-4-yl)-4-(isopropylamino)pyridin-2-yl)-1H-pyrazolo[3,4-b]pyridine-5-carbonitrile]
6.31	8.40	–	CC(C)Nc1cc(-n2ncc3cc(C#N)cnc32)ncc1-c1cn(C2CN(C(=O)C(C)C)C2)nn1 [Example 144, 1-(5-(1-(1-isobutyrylazetidin-3-yl)-1H-1,2,3-triazol-4-yl)-4-(isopropylamino)pyridin-2-yl)-1H-pyrazolo[3,4-b]pyridine-5-carbonitrile]
6.13	8.40	–	CC(C)Nc1cc(-n2ncc3cc(C#N)cnc32)ncc1-c1cn(C2CN(C(=O)C3CC3)C2)nn1 [Example 145, 1-(5-(1-(1-(cyclopropanecarbonyl)azetidin-3-yl)-1H-1,2,3-triazol-4-yl)-4-(isopropylamino)pyridin-2-yl)-1H-pyrazolo[3,4-b]pyridine-5-carbonitrile]
5.96	8.52	–	CC(C)Nc1cc(-n2ncc3cc(C#N)cnc32)ncc1-c1cn(C2CN(C(=O)C(C)(C)C)C2)nn1 [Example 146, 1-(4-(isopropylamino)-5-(1-(1-pivaloylazetidin-3-yl)-1H-1,2,3-triazol-4-yl)pyridin-2-yl)-1H-pyrazolo[3,4-b]pyridine-5-carbonitrile]
5.97	8.30	–	CC(C)Nc1cc(-n2ncc3cc(C#N)cnc32)ncc1-c1cn(C2CN(c3ncccn3)C2)nn1 [Example 147, 1-(4-(isopropylamino)-5-(1-(1-(pyrimidin-2-yl)azetidin-3-yl)-1H-1,2,3-triazol-4-yl)pyridin-2-yl)-1H-pyrazolo[3,4-b]pyridine-5-carbonitrile]
5.72	8.30	–	Cc1nnc(N2CC(n3cc(-c4cnc(-n5ncc6cc(C#N)cnc65)cc4NC(C)C)nn3)C2)o1 [Example 148, 1-(4-(isopropylamino)-5-(1-(1-(5-methyl-1,3,4-oxadiazol-2-yl)azetidin-3-yl)-1H-1,2,3-triazol-4-yl)pyridin-2-yl)-1H-pyrazolo[3,4-b]pyridine-5-carbonitrile]
6.14	8.70	–	CCN1CC(n2cc(-c3cnc(-n4ncc5cc(C#N)cnc54)cc3NC(C)C)nn2)C1 [Example 149, 1-(5-(1-(1-ethylazetidin-3-yl)-1H-1,2,3-triazol-4-yl)-4-(isopropylamino)pyridin-2-yl)-1H-pyrazolo[3,4-b]pyridine-5-carbonitrile]
5.79	8.70	–	CC(C)Nc1cc(-n2ncc3cc(C#N)cnc32)ncc1-c1cn(C2CN(C)C2)nn1 [Example 151, 1-(4-(isopropylamino)-5-(1-(1-methylazetidin-3-yl)-1H-1,2,3-triazol-4-yl)pyridin-2-yl)-1H-pyrazolo[3,4-b]pyridine-5-carbonitrile, 2TFA]
–	8.70	6.28	CC(=O)N1CCC(n2cc(-c3cnc(-n4ncc5cc(C#N)cnc54)cc3NC(C)C)nn2)C1 (stereo not shown) [Example 158, 1-(5-(1-(1-acetylpyrrolidin-3-yl)-1H-1,2,3-triazol-4-yl)-4-(isopropylamino)pyridin-2-yl)-1H-pyrazolo[3,4-b]pyridine-5-carbonitrile]
6.22	8.10	–	CC(C)Nc1cc(-n2ncc3cc(C#N)cnc32)ncc1-c1cn(C)nn1 [Example 164, 1-(4-(isopropylamino)-5-(1-methyl-1H-1,2,3-triazol-4-yl)pyridin-2-yl)-1H-pyrazolo[3,4-b]pyridine-5-carbonitrile]
5.67	7.77	–	CC(C)Nc1cc(-n2ncc3cc(C#N)cnc32)ncc1-c1cn(C[C@H](N)Cc2ccccc2)nn1 [Example 169, (R)-1-(5-(1-(2-amino-3-phenylpropyl)-1H-1,2,3-triazol-4-yl)-4-(isopropylamino)pyridin-2-yl)-1H-pyrazolo[3,4-b]pyridine-5-carbonitrile]
5.94	8.22	–	CC(C)Nc1cc(-n2ncc3cc(C#N)cnc32)ncc1-c1cn(CCCN)nn1 [Example 171, 1-(5-(1-(3-aminopropyl)-1H-1,2,3-triazol-4-yl)-4-(isopropylamino)pyridin-2-yl)-1H-pyrazolo[3,4-b]pyridine-5-carbonitrile]
5.68	7.89	–	CC(C)Nc1cc(-n2ncc3cc(C#N)cnc32)ncc1-c1cn([C@H]2CCN(C(=O)OC(C)(C)C)C[C@H]2O)nn1 [Example 176, (3R,4S)-tert-butyl 4-(4-(6-(5-cyano-1H-pyrazolo[3,4-b]pyridin-1-yl)-4-(isopropylamino)pyridin-3-yl)-1H-1,2,3-triazol-1-yl)-3-hydroxypiperidine-1-carboxylate]
